Measurements taken from PubChem BioAssay (NCI).
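Five compound concentrations were applied to cells in 96-well plates for 48 hours; endpoints were derived by simple linear interpolation of the resulting dose-response curve. Here, GI50 denotes the concentration required for 50% inhibition of growth. The concentration for full growth arrest is given as TGI.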

How the values were obtained:
Experiment in all cases: NCI-60 cell line screen, 48 h
PC-3 prostate = system: PC-3 prostate
MALME-3M melanoma = system: MALME-3M melanoma
UO-31 renal = system: UO-31 renal
SNB-75 CNS = system: SNB-75 CNS
CAKI-1 renal = system: CAKI-1 renal
SF-295 CNS = system: SF-295 CNS
OVCAR-3 ovarian = system: OVCAR-3 ovarian
OVCAR-4 ovarian = system: OVCAR-4 ovarian
786-0 renal = system: 786-0 renal
MOLT-4 leukemia = system: MOLT-4 leukemia

Row | Compound | TGI (PC-3 prostate) [µM] | TGI (MALME-3M melanoma) [µM] | TGI (UO-31 renal) [µM] | TGI (SNB-75 CNS) [µM] | TGI (CAKI-1 renal) [µM] | TGI (SF-295 CNS) [µM] | TGI (OVCAR-3 ovarian) [µM] | TGI (OVCAR-4 ovarian) [µM] | TGI (786-0 renal) [µM] | TGI (MOLT-4 leukemia) [µM] | GI50 (PC-3 prostate) [µM] | GI50 (MALME-3M melanoma) [µM] | GI50 (UO-31 renal) [µM] | GI50 (SNB-75 CNS) [µM] | GI50 (CAKI-1 renal) [µM] | GI50 (SF-295 CNS) [µM] | GI50 (OVCAR-3 ovarian) [µM] | GI50 (OVCAR-4 ovarian) [µM] | GI50 (786-0 renal) [µM] | GI50 (MOLT-4 leukemia) [µM]
1 | O=C1CSC(/C(=C\c2ccc(Cl)cc2)c2nc3ccccc3[nH]2)=N1 | 36.5 | 31.6 | 7.64 | 28.8 | 21.5 | 22.8 | 20.9 | 31.8 | 26.4 | > 100 | – | – | – | – | – | – | – | – | – | –
2 | Cn1ncc2c(N)nc(N3CCCCC3)nc21 | > 100 | 67.9 | > 100 | > 100 | > 100 | > 100 | 71.7 | > 100 | > 100 | – | 33.5 | 20.8 | 43 | 29.7 | 29 | 26.5 | 19.9 | 27.2 | 69.3 | –
3 | C#CC1(O)C(COP(=O)(O)OC2CC(n3cc(F)c(=O)[nH]c3=O)OC2CO)OC(n2ccc(N)nc2=O)C1O (stereo unspecified) | 29.7 | 5.07 | – | 1.18 | 0.0813 | – | – | 8.49 | > 100 | > 39 | < 0.032 | 0.117 | < 0.0128 | < 0.0169 | < 0.01 | < 0.01 | 0.031 | 0.143 | < 0.0117 | < 0.01
4 | CCCCCCCCCCN(CCCCCCCCCC)CC(=O)c1ccc2cc(Br)c3ccccc3c2c1 | 8.95 | 3.57 | 7.2 | 5.45 | 4.43 | 3.53 | 3.54 | 5.16 | 3.39 | 6.2 | 2.67 | 1.71 | 1.86 | 2.1 | 1.7 | 1.75 | 1.98 | 2.38 | 1.81 | 2.66
5 | NNc1nc2ccccc2c(=O)n1NC(=O)C(=O)Nc1cccc(C(F)(F)F)c1 | > 100 | > 100 | > 100 | > 100 | > 100 | > 100 | > 100 | > 100 | > 100 | > 100 | – | – | – | – | – | – | – | – | – | –
6 | COC(=O)c1sc(C(=O)OC)c2c1CSC2 | > 100 | > 100 | > 100 | 57.7 | > 100 | > 100 | > 100 | > 100 | > 100 | > 100 | – | – | – | – | – | – | – | – | – | –
7 | OCC1OC(n2ccc3c(NO)ncnc32)C(O)C1O (stereo unspecified) | 1.14 | 0.451 | 0.502 | 1.82 | 0.403 | 0.599 | 0.884 | 1.3 | 1.1 | 0.477 | 0.239 | 0.117 | 0.0536 | 0.172 | 0.0472 | 0.144 | 0.249 | 0.124 | 0.239 | 0.153
8 | CC(=O)O[C@H]1CC[C@@]2(C)C(=CC[C@H]3[C@@H]4C/C(=C\c5cccc(OCCN6CCOCC6)c5)[C@H](OC(C)=O)[C@@]4(C)CC[C@@H]32)C1 | 16.4 | 23.5 | 19.3 | 22.8 | 59 | 10.5 | > 100 | > 100 | 7.96 | – | 4.5 | 11.4 | 6.43 | 3.85 | 12.2 | 2.48 | 44.7 | 8.16 | 2.63 | –
9 | O=C(Nc1ccc(F)cc1)c1c(NC(=O)C(F)(F)F)sc2c1CCCCC2 | 7.87 | 5.72 | 6.9 | 5.57 | 5.17 | 3.26 | 16.3 | 8.34 | 10.5 | 15.2 | 1.59 | 1.81 | 1.87 | 1.34 | 1.35 | 1.01 | 2.04 | 1.65 | 2.43 | 2.65
10 | COC1CC2C=C(C)/C=C/C=C/C(=O)NC(c3ccccc3)C/C=C/CCC(O)CC(=O)C2=C1O (stereo unspecified) | 1.16 | 1.19 | 1.14 | 0.828 | 1.01 | 0.788 | 0.894 | 1.08 | 1.66 | 1.4 | 0.289 | 0.214 | 0.281 | 0.208 | 0.314 | 0.246 | 0.271 | 0.294 | 0.434 | 0.364
11 | O=C(NCCCNc1cc(-c2cn(-c3ccccc3)nc2-c2cccc(O)c2)ccn1)c1ccccc1 | 15.2 | 4.53 | 23.6 | 46.9 | 15.3 | 4.81 | 21 | 77.3 | 4.69 | 3.78 | 2.1 | 1.73 | 2.36 | 1.68 | 2.48 | 1.76 | 3.73 | 3.56 | 2.04 | 1.41
12 | CCOC(=O)C(=Cc1ccccc1[N+](=O)[O-])C(=O)OCC | 34.7 | 13.2 | 15.9 | 9.68 | 14.3 | 20.1 | 6.48 | 18.1 | 11.8 | 34.5 | 6.69 | 3.85 | 4.52 | 2.57 | 3.61 | 5.38 | 2.65 | 4.68 | 3.85 | 3.55
13 | N=C(N=C(N)N)N1CCN(c2ccncc2)CC1 | > 1000 | > 1000 | > 1000 | > 1000 | > 1000 | > 1000 | > 1000 | > 1000 | > 1000 | > 1000 | > 1000 | > 1000 | > 1000 | > 1000 | > 1000 | > 1000 | > 1000 | > 1000 | > 1000 | > 1000
14 | CC/C=C\C[C@H](O)C/C=C1/C(=O)C=C[C@@H]1C/C=C\CCCC(=O)N(C)C | 4.47 | 8.81 | 2.93 | 33.4 | 2.67 | 11.1 | 1.79 | 13.5 | 2.09 | 12.8 | 1.78 | 3.05 | 1.41 | 10.9 | 1.22 | 2.97 | 0.471 | 2.07 | 0.504 | 2.78
15 | Cc1cc(C)c(C[N+](C)(C)C)c(C)c1C | > 67.2 | 32.2 | 42.8 | 11.5 | > 26 | 7.25 | 15.3 | > 27.1 | 13.2 | > 52.9 | 0.351 | 0.594 | 0.333 | 0.402 | 0.281 | 0.255 | 0.638 | 0.762 | 0.323 | 0.349
16 | Nc1ccc2c(c1)NCCN2 | > 100 | > 100 | > 100 | > 100 | > 100 | > 100 | > 100 | > 100 | > 100 | 89.7 | – | – | – | – | – | – | – | – | – | –
17 | OCCSCc1ccccc1 | > 100 | > 100 | > 100 | > 100 | > 100 | > 100 | > 100 | > 100 | > 100 | > 100 | – | – | – | – | – | – | – | – | – | –
18 | COc1cc(/C=C\[N+](=O)[O-])ccc1OCc1ccccc1 | 25.4 | 9.38 | 3.06 | 6.79 | 13.2 | 18.8 | 3.71 | 13.1 | 3.74 | 7.61 | 3.5 | 2.54 | 1.54 | 1.63 | 3.05 | 4.07 | 1.62 | 3.07 | 1.84 | 2.7
19 | COc1ccc(-c2cc(/C=C3\C(=O)Nc4ccc(Cl)cc43)[nH]n2)cc1 | 15.9 | 20 | 16.9 | 8.49 | 13.8 | 12.8 | 8.42 | 17.3 | 17.4 | 25.6 | 4.03 | 6.85 | 4.02 | 2.26 | 3.31 | 3.29 | 3.05 | 4.31 | 5.28 | 5.13
20 | O=[N+]([O-])c1ccc(N/N=C/c2c(O)ccc3ccccc23)nc1 | > 100 | > 100 | > 100 | > 100 | > 100 | > 100 | > 100 | > 100 | > 100 | > 100 | 48.7 | 27.8 | 1.25 | > 100 | 0.518 | 4.9 | 0.517 | 0.783 | 13.3 | 1.62
21 | CC[C@@]1(O)C(=O)NCc2c1cc1n(c2=O)Cc2cc3c(N)cccc3nc2-1 | > 55.4 | – | 7.12 | > 18.3 | 5.51 | > 46.8 | 40 | > 41.5 | 11.7 | 16.6 | 9.99 | 1.1 | 0.866 | 0.873 | 0.981 | 1.01 | 11 | 11.4 | 1.37 | 0.301
22 | O=c1nc(Nc2cccc(Cl)c2)oc2cc(Cl)oc(=O)c12 | 66.5 | 18.8 | 21.7 | 21.4 | 21.5 | 43 | 13.3 | > 100 | 66.4 | 16.3 | 10.8 | 4.36 | 5.46 | 6.96 | 5.93 | 12.1 | 3.48 | 10.9 | 20.2 | 3.24
23 | CCCCNN | > 100 | > 100 | > 100 | > 100 | > 100 | > 100 | > 100 | > 100 | > 100 | > 100 | – | – | – | – | – | – | – | – | – | –
24 | C=C1C(=O)OC2CC1C(O)C/C(C)=C/CC/C(C)=C/C(O)CC2C (stereo unspecified) | 13.1 | 7.61 | 6.66 | 16.3 | 8.39 | 26.7 | 9.2 | 11.5 | 3.99 | 3.11 | – | – | – | – | – | – | – | – | – | –
25 | N#Cc1c(-c2ccccc2)cc(-c2ccc(Nc3nc(Nc4ccc(Cl)cc4)nc(Nc4ccc(Cl)cc4)n3)cc2)nc1N | 6.76 | 3.62 | 2.33 | 14.4 | 30.4 | 43.6 | 3.68 | > 100 | 3.46 | 4.53 | 1.89 | 1.69 | 1.1 | 2.65 | 11.8 | 10.3 | 1.7 | 4.06 | 1.91 | 1.62
26 | Cn1ccn2c3nc4ccccc4nc3c(=O)c(C#N)c12 | > 100 | > 100 | > 100 | > 100 | > 100 | > 100 | > 100 | > 100 | > 89.9 | > 100 | – | – | – | – | – | – | – | – | – | –
27 | COCCOC(=O)NC(=O)Nc1ccc(/C(=N/O)c2ccc(Cl)cc2)cc1 | 64.2 | 33.1 | 26.5 | 7.94 | > 100 | 0.559 | 4.4 | 54.2 | 25.7 | 7.76 | 0.141 | 11.9 | 0.284 | 0.129 | – | 0.123 | 0.0991 | 0.385 | 0.249 | 0.109
28 | COc1ccc(/C=C/c2nc(NCCCN(C)C)c3ccccc3n2)cc1 | 15.2 | 3.18 | 29.4 | 2.88 | 33.7 | 11 | 11.4 | 5.58 | 26.7 | 3.55 | 3.35 | 1.62 | 14.1 | 1.34 | 16.5 | 5.15 | 4.88 | 2.07 | 13.3 | 1.61
